This note sets out measurements from paper PMC7164622, “Citrate lyase CitE in Mycobacterium tuberculosis contributes to mycobacterial survival under hypoxic conditions” (PLoS ONE, 2020).

Data set [1] deals with T1, MtbCitE (CitE) (Mycobacterium tuberculosis, UniProt P9WPE1).
Data set [2] deals with T1, MtbCitE (CitE). This is another data set of the same source.
Data set [3] concerns the molecule itself. The data set can be described thus: cross-linking; chemical cross-linking with 4 μM disuccinimidyl suberate (DSS), 10 mM CitE protein (so in the source), 100 mM NaH2PO4 pH 8.0, 150 mM NaCl, room temperature, half an hour, then SDS-PAGE.

Regarding `Nc1ncnc2c1ncn2[C@@H]1O[C@H](COP(=O)(O)OP(=O)(O)OP(=O)(O)O)[C@@H](O)[C@H]1O` [ATP], at MtbCitE (CitE) [1], the “activity with 0-1.5 mM ATP” value was “the citrate cleavage activity of MtbCitE was inhibited by ATP”. As for `O=C(O)CC(O)(CC(=O)O)C(=O)O` [citrate], on MtbCitE (CitE) [2], the citrate cleavage activity result is listed as “we predicted that purified MtbCitE had citrate lyase activity”.

B1: Mycobacterium tuberculosis CitE (MtbCitE), citrate lyase (enzyme)
chain: MNLRAAGPGWLFCPADRPERFAKAAAAADVVILDLEDGVAEAQKPAARNALRDTPLDPERTVVRINAGGTADQARDLEALAGTAYTTVMLPKAESAAQVIELAPRDVIALVETARGAVCAAEIAAADPTVGMMWGAEDLIATLGGSSSRRADGAYRDVARHVRSTILLAASAFGRLALDAVHLDILDVEGLQEEARDAAAVGFDVTVCIHPSQIPVVRKAYRPSHEKLAWARRVLAASRSERGAFAFEGQMVDSPVLTHAETMLRRAGEATSE
notes: also called Rv2498c; citrate lyase β-subunit
As a reminder, the stoichiometry N is the number of molecules, sites or subunits per partner or assembly. As to B1, the “stoichiometry N” value in data set [3] was determined as 3.
